{
  "source": "paper PMC7096398",
  "about": "“Oxytocin Receptors Regulate Social Preference in Zebrafish” (Scientific Reports, 2020)",
  "key": {"rodents": {"system": "rodents", "settings": "cited from earlier work", "procedure": "Intraperitoneal injections were conducted using a 1 mL U-100 BD MicroFine™ Insulin Syringe (Becton Dickinson France S.A.S., France). Post injection, animals were placed into their holding tanks for one hour to recover. […] Following this, focal fish were individually placed in the middle of the test tank and left ..."}, "adult zebrafish": {"system": "adult zebrafish", "test": "Novel tank diving in adult zebrafish", "type": "in vivo, zebrafish (Danio rerio)", "procedure": "Adult and larval behavioural testing was performed between 9 AM and 4 PM. All fish were fed prior to and after experiments, and larvae were also given an additional feed at midday. Adult fish were of a 1:1 sex ratio, and focal fish and stimulus fish were size-matched. Adult fish and shoals were filmed using a web camera and Debut Video Capture Software (NCH Software, Greenwood Village, USA), and videos were analysed using EthoVision version 11 (Noldus, Wageningen, the Netherlands).\nA novel tank diving test was executed individually in order to examine the effect of the antagonist on anxiety in zebrafish. Anxiety-like behaviour in zebrafish is evident in a tendency to move towards the bottom of novel environments. The novel tank diving test used here has been described elsewhere. In brief, the same procedure as for the shoaling test described above was used, except that fish were housed in groups of 4–6 individuals 24 hours prior to the experiment in order to keep netting and potential stress to a minimum, and each fish was placed the test tank individually. A total of 20 vehicle-treated fish and 20 antagonist-treated fish were tested.\nAll data for the social preference and novel tank diving experiments in adults were extracted as processed means per minute from EthoVision. For the shoaling experiments, raw data was exported from EthoVision, and then post-processed by an in-house script written in Python 3.4, in order to compute IFD, NND, and FND as described elsewhere. For timelines, repeated measures analysis of variance (RM-ANOVA) was used. For pairwise comparisons of total means between groups, Student’s T-tests were used."}, "larval zebrafish": {"system": "larval zebrafish", "test": "Social preference in larval zebrafish", "type": "in vivo, zebrafish (Danio rerio)", "settings": "100 µM immersion 1 h", "procedure": "The social preference test for young zebrafish has been described elsewhere. In brief, experiments were performed in custom-built arenas; see Fig. 5, consisting of laser-cut 5 mm high white acrylic walls placed on transparent flooring with transparent acrylic partitions. The dimensions of each arena were 40 × 32 mm, and the chambers containing stimulus fish was 15 × 15 mm. The areas in front of these stimulus compartments were designated Social Area (where the stimulus was placed) or Non-Social Area (where the stimulus was not placed). The water depth was 5 mm, and water parameters matched the ones housing water parameters. Nine arenas were placed adjacent to each other on an infrared (IR) back-light diffusing both IR and white light (Noldus, Wageningen, the Netherlands), with a digital monochrome high resolution GigE camera overhead (Noldus, Wageningen, the Netherlands), and surrounded by an opaque enclosure.\nA 10 mM stock solution was prepared by dissolving L-368,899 in H2O (Milli-Q water purification system), and subsequently stored at −20 °C. The stock solution was diluted to a working concentration of 100 µM by addition of water adjusted to the same parameters kept in the fish facility. Larvae were immersed in 100 µM L-368,899 solution (treated fish) or in water matching housing conditions (control fish) for 1 hour prior to testing. Focal larvae were then transferred to test arenas and filmed for 15 minutes, with no stimulus present (acclimation period; AC). Following this, one stimulus larva was placed in a randomly selected stimulus chamber of each arena, and focal larvae were filmed for another 15 minutes (social cue period; SC). A total of 137 vehicle-treated fish and 109 antagonist-treated fish were tested, and after using the exclusion criteria described below, 87 vehicle-treated fish and 77 antagonist-treated fish were included in the statistical analyses.\nLarval results were analysed using a social preference index (SPI). SPI was calculated by subtracting the time a focal larva spent in the Non-Social Area from the time it spent in the Social Area, and then dividing the result by the total time the larva was tracked in the entire arena. […] SPI was calculated for each focal larva for the AC period and the SC period separately. […] All data was analysed using paired T-tests to investigate change within the control and treated groups, and Student’s T-tests to investigate difference between the groups for each phase."}},
  "note": "“Also recorded” adds a separate entry of the source.",
  "data": [
    {"smiles": "Cc1ccccc1N1CCN(S(=O)(=O)C[C@]23CC[C@H](C[C@@H]2NC(=O)[C@@H](N)CCS(C)(=O)=O)C3(C)C)CC1", "note": "[L-368,899]", "values": [
      {"measurement": "Behavioural effects one hour after treatment", "setting": "rodents", "result": "robust behavioural effects"},
      {"measurement": "Anxiety behaviour: Distance to bottom", "setting": "adult zebrafish; adult novel tank diving, i.p., 1 h before test, mean ± SEM, n = 20, vehicle 2.7 ± 0.4", "result": "3.1 ± 0.4", "unit": "cm"},
      {"measurement": "Locomotion: Velocity", "setting": "adult zebrafish; adult novel tank diving, i.p., 1 h before test, mean ± SEM, n = 20, vehicle 3.1 ± 0.2, p = 0.47", "result": "2.9 ± 0.2", "unit": "cm/s"},
      {"measurement": "Anxiety behaviour: Duration in top zone", "setting": "adult zebrafish; adult novel tank diving, i.p., 1 h before test, mean ± SEM, n = 20, vehicle 7.0 ± 2.4", "result": "8.8 ± 2.4", "unit": "s/min"},
      {"measurement": "Locomotion: Distance", "setting": "adult zebrafish; adult novel tank diving, i.p., 1 h before test, mean ± SEM, n = 20, vehicle 186 ± 11, p = 0.49", "result": "174 ± 14", "unit": "cm/min"},
      {"measurement": "Anxiety behaviour: Latency to top zone", "setting": "adult zebrafish; adult novel tank diving, i.p., 1 h before test, mean ± SEM, n = 20, vehicle 327 ± 58", "result": "387 ± 81", "unit": "s"},
      {"measurement": "Anxiety, in words", "setting": "adult zebrafish; adults, antagonist vs vehicle", "result": "did not affect anxiety; also recorded: no differences in any of the anxiety parameters"},
      {"measurement": "Activity parameters vs vehicle, novel tank diving test", "setting": "adult zebrafish; average distance p = 0.49, average velocity p = 0.47", "result": "no significant differences"},
      {"measurement": "Social preference in larvae, in words", "setting": "larval zebrafish", "result": "decreased social preference"},
      {"measurement": "Increase in SPI from acclimation to social cue", "setting": "larval zebrafish; t(76) = 0.177, p = 0.86, vehicle larvae significantly increased, p = 0.039", "result": "not present"},
      {"measurement": "SPI during the social cue period vs vehicle", "setting": "larval zebrafish; t(162) = 1,98, p = 0.049", "result": "significantly lower SPI"},
      {"measurement": "Social Preference Index (AC)", "setting": "larval zebrafish; 3-week-old larvae, acclimation phase, mean ± SEM, n = 77, vehicle 0.06 ± 0.04", "result": "0.00 ± 0.05"},
      {"measurement": "Locomotion (AC): Velocity", "setting": "larval zebrafish; 3-week-old larvae, acclimation phase, mean ± SEM, n = 77, vehicle 0.28 ± 0.01", "result": "0.30 ± 0.02", "unit": "cm/s"},
      {"measurement": "Locomotion (AC): Distance", "setting": "larval zebrafish; 3-week-old larvae, acclimation phase, mean ± SEM, n = 77, vehicle 249 ± 12", "result": "265 ± 14", "unit": "cm/min"},
      {"measurement": "Social Preference Index (SC)", "setting": "larval zebrafish; 3-week-old larvae, social cue phase, mean ± SEM, n = 77, vehicle 0.18 ± 0.05", "result": "0.01 ± 0.06"}
    ]}
  ]
}
